For data set [1], the system named is 11 clinically relevant bacterial pathogens. In kind it is cell-based. The note with it: Supplementary Dataset 2; against the 11 pathogens tested. The method, boiled down:
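Antimicrobial activity is measured by broth microdilution against log-phase bacteria (OD600 0.3–0.5). Peptide range: 1 to 64 μmol l^−1.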

Data set [2] deals with E. faecalis ATCC 700802 (vancomycin-resistant strain). It is filed as cell-based, Enterococcus faecalis. The note with it: ATCC 700802, 20 h. From the text: The following Gram-negative bacteria were used in our study: A. baumannii ATCC 19606, E. coli ATCC 11775, E. coli AIC221 (E. coli MG1655 phnE_2::FRT), E. coli AIC222 (E. coli MG1655 pmrA53 phnE_2::FRT (colistin resistant)), K. pneumoniae ATCC 13883, P. aeruginosa PAO1 and P. aeruginosa PA14. The following Gram-positive bacteria were also used in our study: S. aureus ATCC 12600, S. aureus ATCC BAA-1556 (methicillin-resistant strain), E. faecalis ATCC 700802 (vancomycin-resistant strain) and E. faecium ATCC 700221 (vancomycin-resistant strain). Bacteria were grown from frozen stocks and plated on Luria–Bertani (LB) or Pseudomonas isolation agar plates (P. aeruginosa strains) and incubated overnight at 37 °C. After the incubation period, a single colony was transferred to 5 ml of LB medium, and cultures were incubated overnight (16 h) at 37 °C. The following day, an inoculum was prepared by diluting the overnight cultures 1:100 in 5 ml of the respective media and incubating them at 37 °C until bacteria reached logarithmic phase (OD600 = 0.3–0.5).
The in vitro antimicrobial activity of the peptides was assessed by using the broth microdilution assay. […] Aqueous solutions of the peptides were added to the plate at concentrations ranging from 1 to 64 μmol l^−1. […] The optical density of the plates was measured at 600 nm using a spectrophotometer. […]

For another data set, the system named is HEK293T cells. The following applies: 24 h. The method, boiled down:
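5,000 cells/well seeded a day ahead in DMEM with 10% FBS, then treated with peptides; viability by MTT (0.5 mg/ml, 4 h, 37 °C), formazan in acidic isopropanol read at 570 nm. Concentration causing 50% lysis from non-linear regression; three biological replicates, two technical each.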

Converted amounts (≈) assume the structure as drawn. Peptide text beside a SMILES is read from it. Some results are limits rather than exact numbers.

On to `CC[C@H](C)[C@H](NC(=O)[C@H](CCCCN)NC(=O)[C@H](CC(C)C)NC(=O)[C@H](CCC(N)=O)NC(=O)[C@H](Cc1ccccc1)NC(=O)[C@@H](NC(=O)[C@@H](NC(=O)[C@H](Cc1ccccc1)NC(=O)[C@H](CC(C)C)NC(=O)[C@@H](NC(=O)[C@@H](N)CC(C)C)[C@@H](C)O)[C@@H](C)CC)[C@@H](C)CC)C(=O)N[C@@H](CO)C(=O)N[C@@H](CCCCN)C(=O)N[C@@H](CC(C)C)C(=O)O` [Paleopropin-1] (H-LTLFIIFQLKISKL-OH; N-terminus and C-terminus assumed), for which the “Active or Inactive” value in data set [1] is recorded as “Active”. Besides, in data set [2], the “Minimal inhibitory concentration, E. faecalis ATCC700802-VRE” value came out at 16 µM (≈ 26.8 µg/mL). In addition, in the data set with HEK293T cells, the CC50 was greater than 128 µM and the “TI (therapeutic index)” value is listed as greater than 4.

Usually CC50 stands for the concentration that lowers cell viability or growth by half. A low value points to harm at low concentration.
